From patent US11571423B2, “Small molecule modulators of human sting” (Curadev Pharma Limited, priority 2017, dated 2023) come the findings set out here.

Where a name gives a salt, the structure may show the parent alone.

Usually EC50 stands for the concentration at which the effect is half-maximal.

Assay [1] concerns the target cynomolgus monkey STING protein (Macaca fascicularis, UniProt A0A2R3XZA6). Description: Luciferase reporter assay, cynomolgus monkey STING overexpressed in HEK293T cells. In kind it is cell-based. Particulars: cynomolgus monkey STING overexpressed in HEK293T cells; read-out: Cynomolgus monkey STING activity (EC50 range). The procedure: 5×10^5 clonally selected HEK293T-hSTING-Luciferase cells were seeded in 384-well plates in growth medium and stimulated with novel compounds. After 20 hr of stimulation supernatant were removed and secretary reporter gene activity were measured using the Quanti-Luc detection system (Invivogen) on a Spectramax i3X luminometer.
In the tables below, EC50 value ranges for exemplary compounds are given.
Selected compounds were further tested against cynomolgus monkey STING protein overexpressed in HEK293T cells.
(In a reporter assay the amount or activity of a reporter protein is the signal.)

The target in the next assay is hSTING(R232) (Homo sapiens, UniProt Q86WV6, H232R). Description: Luciferase reporter assay in HEK293T-hSTING-Luciferase cells, R232 (wild type) human STING. The conditions noted are these: 20 hr stimulation, read-out: R232 human activity (EC50 range). The format is cell-based. The gist of the method:
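After 20 hr compound stimulation of 5×10^5 cells, secreted luciferase in the supernatant was measured by luminescence; values are fold-induction over baseline and EC50. The line is a clonal HEK293T stably carrying a STING plasmid (pUNO-1) and a luciferase reporter under five tandem ISREs fused to an ISG54 promoter.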

Sequence of cynomolgus monkey STING protein (A0A2R3XZA6 entry or part of it): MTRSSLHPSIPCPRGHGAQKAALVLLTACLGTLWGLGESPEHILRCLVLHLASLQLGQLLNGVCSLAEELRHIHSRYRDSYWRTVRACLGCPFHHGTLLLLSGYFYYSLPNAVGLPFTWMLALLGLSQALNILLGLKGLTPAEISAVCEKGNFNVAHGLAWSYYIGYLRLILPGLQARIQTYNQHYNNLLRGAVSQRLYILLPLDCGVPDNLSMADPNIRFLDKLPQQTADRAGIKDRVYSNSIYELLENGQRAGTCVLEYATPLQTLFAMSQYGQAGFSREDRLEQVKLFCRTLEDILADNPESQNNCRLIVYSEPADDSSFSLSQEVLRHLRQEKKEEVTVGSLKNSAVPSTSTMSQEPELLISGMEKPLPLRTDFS
Sequence of hSTING(R232) (Q86WV6 whole entry H232R, the tested form may be a part): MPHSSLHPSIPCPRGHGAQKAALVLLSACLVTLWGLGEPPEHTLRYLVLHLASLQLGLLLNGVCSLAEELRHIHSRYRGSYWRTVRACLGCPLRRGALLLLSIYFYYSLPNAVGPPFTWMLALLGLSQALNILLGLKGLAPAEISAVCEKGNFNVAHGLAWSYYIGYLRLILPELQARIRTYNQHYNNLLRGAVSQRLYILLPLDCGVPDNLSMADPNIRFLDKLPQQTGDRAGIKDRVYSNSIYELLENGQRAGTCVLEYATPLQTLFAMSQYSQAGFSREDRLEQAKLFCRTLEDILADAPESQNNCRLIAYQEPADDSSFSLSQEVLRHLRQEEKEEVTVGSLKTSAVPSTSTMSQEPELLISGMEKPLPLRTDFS

As for `C[C@H]1c2ccc(C(=O)NCc3c(F)cc(F)cc3F)cc2N(Cc2c(F)ccc(OP(=O)(O)O)c2Cl)C(=O)N1C` [Example 89, (S)-2-Chloro-3-((3,4-dimethyl-2-oxo-7-((2,4,6-trifluorobenzyl)carbamoyl)-3,4-dihydroquinazolin-1(2H)-yl)methyl-4-fluorophenyldihydrogen phosphate], the EC50 (in assay [1]; on hSTING(R232)) was less than 1000 nM each time.

For the compound `C[C@H]1c2ccc(C(=O)NCc3c(F)cc(F)cc3F)cc2N(Cc2cc(N)ccc2F)C(=O)N1C` [Example 273, (S)-1-(5-amino-2-fluorobenzyl)-3,4-dimethyl-2-oxo-N-(2,4,6-trifluorobenzyl)-1,2,3,4-tetrahydroquinazoline-7-carboxamide], the EC50 was 1000 to 10000 nM in assay [1] and less than 1000 nM at hSTING(R232).

With `C[C@H]1c2ccc(C(=O)NCc3c(F)cc(F)cc3F)cc2N(Cc2c(F)cc(OCCN3CCOCC3)cc2F)C(=O)N1C` [Example 291, (S)-1-(2,6-difluoro-4-(2-morpholinoethoxy)benzyl)-3,4-dimethyl-2-oxo-N-(2,4,6-trifluorobenzyl)-1,2,3,4-tetrahydroquinazoline-7-carboxamide], the EC50 (in assay [1]; at hSTING(R232)) was less than 1000 nM each time.

Regarding `C[C@H]1c2ccc(C(=O)NCc3c(F)cc(F)cc3F)cc2N(Cc2c(F)cc(OCCN)cc2Cl)C(=O)N1C` [Example 299, (S)-1-(4-(2-aminoethoxy)-2-chloro-6-fluorobenzyl)-3,4-dimethyl-2-oxo-N-(2,4,6-trifluorobenzyl)-1,2,3,4-tetrahydroquinazoline-7-carboxamide hydrochloride], the figures for the EC50 (in assay [1]; on hSTING(R232)) were more than 10000 nM and less than 1000 nM, respectively.

Consider `CC1c2ccc(C(=O)NCc3c(F)cc(F)cc3F)cc2N(Cc2ccccc2F)C(=O)N1C` (stereo not shown) [Example 202, 1-(2-fluorobenzyl)-3,4-dimethyl-2-oxo-N-(2,4,6-trifluorobenzyl)-1,2,3,4-tetrahydroquinazoline-7-carboxamide], for which the EC50 (in assay [1]; on hSTING(R232)) was less than 1000 nM each time.

On to `C[C@H]1c2ccc(C(=O)NCc3c(F)cc(OP(=O)(O)O)cc3F)cc2N(Cc2c(F)cccc2Cl)C(=O)N1C` [Example 101, (S)-4-((1-(2-chloro-6-fluorobenzyl)-3,4-dimethyl-2-oxo-1,2,3,4-tetrahydroqinazoline-7-carboxamido)methyl)-3,5-difluorophenyl dihydrogen phosphate], for which the EC50 (in assay [1]; on hSTING(R232)) was 1000 to 10000 nM in each case.

In the case of `C[C@H]1c2ccc(C(=O)NCc3c(F)cc(F)cc3F)cc2N(Cc2c(F)cc(OCCCC(=O)O)cc2F)C(=O)N1C` [Example 294, (S)-4-(4-((3,4-dimethyl-2-oxo-7-((2,4,6-trifluorobenzyl)carbamoyl)-3,4-dihydroquinazolin-1(2H)-yl)methyl)-3,5-difluorophenoxy)butanoic acid], the EC50 (in assay [1]; at hSTING(R232)) was less than 1000 nM throughout.

As for `C[C@H]1c2ccc(C(=O)NCc3c(F)cc(F)cc3F)cc2N(Cc2cc(OCCO)cc(F)c2F)C(=O)N1C` [Example 282, (S)-1-(2,3-difluoro-5-(2-hydroxyethoxy)benzyl)-3,4-dimethyl-2-oxo-N-(2,4,6-trifluorobenzyl)-1,2,3,4-tetrahydroquinazoline-7-carboxamide], the concentration for a half-maximal effect (EC50) in assay [1] is 1000 to 10000 nM; at hSTING(R232) it was less than 1000 nM.

With `C[C@H]1c2ccc(C(=O)NCc3c(F)cc(F)cc3F)cc2N(Cc2c(F)ccc(CO)c2F)C(=O)N1C` [Example 269, (S)-1-(2,6-difluoro-3-(hydroxymethyl)benzyl)-3,4-dimethyl-2-oxo-N-(2,4,6-trifluorobenzyl)-1,2,3,4-tetrahydroquinazoline-7-carboxamide], the EC50 (in assay [1]; on hSTING(R232)) was less than 1000 nM each time.

As for `CC(=O)Nc1ccc(COC(=O)Oc2ccc(F)c(CN3C(=O)N(C)[C@@H](C)c4ccc(C(=O)NCc5c(F)cc(F)cc5F)cc43)c2Cl)cc1` [Example 139, (S)-4-Acetamidobenzyl-(2-chloro-3-((3,4-dimethyl-2-oxo-7-((2,4,6-trifluorobenzyl)carbamoyl)-3,4-dihydroquinazolin-1(2H)-yl)methyl)-4-fluorophenyl) carbonate], the EC50 (in assay [1]; at hSTING(R232)) was less than 1000 nM throughout.

Take `C[C@H]1c2ccc(C(=O)NCc3c(F)cc(F)cc3F)cc2N(Cc2c(F)ccc(OCCOP(=O)(O)O)c2F)C(=O)N1C` [Example 103, (S)-2-(3-((3,4-dimethyl-2-oxo-7-((2,4,6-trifluorobenzyl)carbamoyl)-3,4-dihydroquinazolin-1(2H)-yl)methyl)-2,4-difluorophenoxy)ethyl dihydrogen phosphate]: the EC50 (in assay [1]; at hSTING(R232)) was less than 1000 nM each time.

Turning to `C[C@H]1c2ccc(C(=O)NCc3c(F)cc(F)cc3F)cc2N(Cc2c(F)ccc(OCCCOP(=O)(O)O)c2Cl)C(=O)N1C` [Example 96, (S)-3-(2-chloro-3-((3,4-dimethyl-2-oxo-7-((2,4,6-trifluorobenzyl)carbamoyl)-3,4-dihydroquinazolin-1(2H)-yl)methyl)-4-fluorophenoxy)propyl dihydrogen phosphate], the EC50 in assay [1] is more than 10000 nM; on hSTING(R232), less than 1000 nM.

On to `C[C@H]1c2ccc(C(=O)NCc3c(F)cc(F)cc3F)cc2N(Cc2c(O)cc(F)cc2F)C(=O)N1C` [Example 260, (S)-1-(2,4-difluoro-6-hydroxybenzyl)-3,4-dimethyl-2-oxo-N-(2,4,6-trifluorobenzyl)-1,2,3,4-tetrahydroquinazoline-7-carboxamide], for which the EC50 (in assay [1]; at hSTING(R232)) was less than 1000 nM throughout.

For `COc1cc(F)cc(F)c1CN1C(=O)N(C)[C@@H](C)c2ccc(C(=O)NCc3c(F)cc(F)cc3F)cc21` [Example 259, (S)-1-(2,4-difluoro-6-methoxybenzyl)-3,4-dimethyl-2-oxo-N-(2,4,6-trifluorobenzyl)-1,2,3,4-tetrahydroquinazoline-7-carboxamide], the EC50 (in assay [1]; on hSTING(R232)) was less than 1000 nM each time.

Regarding `COc1cc(F)c(CN2C(=O)N(C)C(C)c3ccc(C(=O)NCc4c(F)cc(F)cc4F)cc32)c(F)c1` (stereo not shown) [Example 165, 1-(2,6-difluoro-4-methoxybenzyl)-3,4-dimethyl-2-oxo-N-(2,4,6-trifluorobenzyl)-1,2,3,4-tetrahydroquinazoline-7-carboxamide], the EC50 (in assay [1]; at hSTING(R232)) was less than 1000 nM throughout.

As for `C[C@H]1c2ccc(C(=O)NCc3c(F)cc(F)cc3F)cc2N(Cc2c(F)cc(OCCOP(=O)(O)O)cc2F)C(=O)N1C` [Example 97, (S)-2-(4-((3,4-dimethyl-2-oxo-7-((2,4,6-trifluorobenzyl)carbamoyl)-3,4-dihydroquinazolin-1(2H)-yl)methyl)-3,5-difluorophenoxy)ethyl dihydrogen phosphate], the EC50 (in assay [1]; on hSTING(R232)) was less than 1000 nM throughout.

Regarding `C[C@H]1c2ccc(C(=O)NCc3c(F)cc(F)cc3F)cc2N(Cc2cc(OCCO)ccc2F)C(=O)N1C` [Example 263, (S)-1-(2-fluoro-5-(2-hydroxyethoxy)benzyl)-3,4-dimethyl-2-oxo-N-(2,4,6-trifluorobenzyl)-1,2,3,4-tetrahydroquinazoline-7-carboxamide], the results for the EC50 (in assay [1]; at hSTING(R232)) were 1000 to 10000 nM and less than 1000 nM, respectively.
